Assay results as given in patent US11786498B2, “Sacubitril calcium salts” (Novartis AG, priority 2015, dated 2023).
Structures can show the parent of a compound that is named as a salt.

How the values were obtained:
Format in all cases: physicochemical
[1] = Solvent loss as a function of temperature as measured by TG/DTA
Experimental: (ii) Thermogravimetric/Differential Thermal Analysis (TG/DTA)
Differential scanning calorimetry was conducted for each crystalline form using a Seiko TG/DTA Instrument. For each analysis, the DSC cell/sample chamber was purged with 100 mL/min of ultra-high purity nitrogengas. The instrument was calibrated with high purity indium. The heating rate was 10° C. per minute in the temperature range between 25 and 300° C. The heat flow, which was normalized by sample weight, was plotted versus the measured sample temperature. The data were reported in units of watts/gram (“W/g”). The plot was made with the endothermic peaks pointing down. The endothermic melt peak (melting point) was evaluated for extrapolated onset temperature.

Flowability of the solid = assay: Flowability of the solid
[2] = Water uptake / hygroscopicity at relative humidity (sorption-desorption)
[3] = Solid form stability on wet granulation, equilibration, humidity exposure, compression, grinding (XRPD); conditions: for form change on wet granulation: wet granulation (with water)
Experimental: (i) X-Ray Powder Diffraction (XRPD) The X-ray powder diffraction pattern was determined using a Scintag XDS 2000 diffractometer instrument. The X-ray diffraction pattern was recorded between 2° and 35° (2θ) with CuK radiation (45 kV, 40 mA). The measurements were performed at about 45 kV and 40 mA under the following conditions: • Scan rate: 0.5° (20)/min • Chopper increment: 0.02° • Slits (from left to right): 2, 3, 0.3, 0.2 mm

Structure (SMILES): CCOC(=O)[C@H](C)CC(Cc1ccc(-c2ccccc2)cc1)NC(=O)CCC(=O)O (stereo partly drawn) [Modification HB, calcium salt of N-(3-carboxyl-1-oxopropyl)-(4S)-(p-phenylphenylmethyl)-4-amino-(2R)-methyl butanoic acid ethyl ester]
- water levels as obtained [1]: 1.4-4.1%
- Loss on drying (LOD) ([1]; TG/DTA, 10° C./min, nitrogen, listed as HB): 3.4%
- temperature required for complete dehydration ([1]; heating): above 97 °C
- flowability (Flowability of the solid): good flowability properties
- behaviour at humidity (in words) ([2]; 25° C., relative humidity from 0% to 80%): remains dry
- water uptake ([2]; at 95% RH): 2.0%
- form retention during take-up and release of water ([2]; sorption-desorption experiments): retained

Structure (SMILES): CCOC(=O)[C@H](C)CC(Cc1ccc(-c2ccccc2)cc1)NC(=O)CCC(=O)O (stereo partly drawn) [Modification B, calcium salt of N-(3-carboxyl-1-oxopropyl)-(4S)-(p-phenylphenylmethyl)-4-amino-(2R)-methyl butanoic acid ethyl ester]
- form change on equilibration in solvent ([3]; equilibration in water or ethanol/water 1:1): Hydrate formation was observed
- form change on wet granulation [3]: Hydrate formation was observed
- thermal stability [1]: thermally stable up to its melting point
- hygroscopicity (in words) [2]: only slightly hygroscopic
- water uptake, maximum reached ([2]; can reach up to): up to 11%
- hygroscopicity (water uptake) under typical humidity levels ([2]; up to 75% RH): < 2%

Structure (SMILES): CCOC(=O)[C@H](C)CC(Cc1ccc(-c2ccccc2)cc1)NC(=O)CCC(=O)O (stereo partly drawn) [Modification A, calcium salt of N-(3-carboxyl-1-oxopropyl)-(4S)-(p-phenylphenylmethyl)-4-amino-(2R)-methyl butanoic acid ethyl ester]
- hygroscopicity (in words) [2]: hygroscopic
- water uptake ([2]; at 95% RH): 13.8%

Structure (SMILES): CCOC(=O)[C@H](C)CC(Cc1ccc(-c2ccccc2)cc1)NC(=O)CCC(=O)O (stereo partly drawn) [amorphous AHU377 calcium salt, calcium salt of N-(3-carboxyl-1-oxopropyl)-(4S)-(p-phenylphenylmethyl)-4-amino-(2R)-methyl butanoic acid ethyl ester]
- form change on exposure to elevated humidity ([3]; >75% RH): turns into a crystalline hydrate
- form change after compression ([3]; compression for 5 min at 10 t, XRPD): No change of the amorphous form
- form change after grinding ([3]; grinding, XRPD): No change of the amorphous form
- form change on wet granulation [3]: rapidly leads to hydrate formation
- water uptake ([2]; at 80% RH): 15.2%
